What all share (assay type): biochemical
The target in one experiment is T1, GASC1 (Homo sapiens, UniProt Q9H3R0).
T1 construct: 6×His tagged recombinant GASC1 (N 350aa) was purified from E. Coli BL21(DE3); 6xHis; made in house; host or cells: E. coli BL21(DE3)
T1 sequence (Q9H3R0 1-350 limits assumed): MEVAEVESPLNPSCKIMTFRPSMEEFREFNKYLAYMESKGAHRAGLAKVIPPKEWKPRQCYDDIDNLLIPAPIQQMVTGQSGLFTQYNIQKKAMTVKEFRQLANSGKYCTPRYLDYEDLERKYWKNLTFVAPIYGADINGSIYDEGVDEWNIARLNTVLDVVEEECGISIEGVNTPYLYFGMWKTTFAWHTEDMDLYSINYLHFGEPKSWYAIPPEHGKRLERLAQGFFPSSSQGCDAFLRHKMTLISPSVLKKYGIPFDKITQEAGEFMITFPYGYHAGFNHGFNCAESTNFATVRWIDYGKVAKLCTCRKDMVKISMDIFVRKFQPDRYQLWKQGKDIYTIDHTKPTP
Put plainly: GASC1 demethylation assay on H3K9Me3 peptide (RapidFire HT-MS). The conditions noted are these: read-out: GASC1 Inhibition. Here is the method: 6×His tagged recombinant GASC1 (N 350aa) was purified from E. Coli BL21(DE3) to near homogeneity. The demethylation reaction buffer contained 50 mM TrisCl pH 7.5, 0.01% Triton X-100, 5% glycerol, 1 mM ascorbate (Cat# A4034, Sigma Aldrich), 5 μM α-ketoglutarate (# K2010, Sigma Aldrich) and 20 μM Fe2(NH4)2(SO4)2 (Cat# F1543, Sigma Aldrich). In 25 μL demethylation reaction system, 400 nM recombinant GASC1 and 20 μM H3K9me3 peptide (1-21 aa) were incubated with compounds for 10 minutes, and then α-ketoglutarate and Fe2(NH4)2(SO4)2 were added to initiate the reaction. All of the reactions were incubated for 45 minutes at room temperature, and then 25 μl of 1 N HCl was added to quench the reactions. After termination, plates were sealed and frozen at −80° C. and shipped on dry ice to BioTrove Inc. (Woburn, Mass.) for analysis.
All the reactions were read by RapidFire™ HT-MS platform developed in BioTrove Inc, and the method has been described in detail previously (Assay and Drug Development Technologies, 2004; 2(4): 373-381). Briefly, at BioTrove, plates were thawed and immediately analyzed using RapidFire™ system coupled to a Sciex API4000 triple quadrapole mass spectrometer. The samples were delivered directly from the plate to a clean-up cartridge (BioTrove column A) to remove nonvolatile assay components with 0.1% formic acid in a 3-sec wash cycle. The peptide substrate and demethylated product were coeluted to the mass spectrometer with 80% acetonitrile, 0.1% formic acid. Both the substrate and product signals were read at their +5 charge species, and the conversion from substrate to product is assessed by [H3K9me2 Read]/[H3K9me2 Read+H3K9me3 Read].

A further experiment concerns the target T2, PLU-1 (Homo sapiens, UniProt Q9UGL1).
T2 construct: FLAG tagged full length recombinant JARID1A and PLU1 proteins were purified from Sf9 insect cells; FLAG; made in house; host or cells: Sf9 insect cells
The experiment in a line: PLU-1 demethylase assay on H3K4Me3 peptide (RapidFire HT-MS). Here is the method: (§1) FLAG tagged full length recombinant JARID1A and PLU1 proteins were purified from Sf9 insect cells to near homogeneity. The demethylation reaction buffer contained 50 mM TrisCl pH 7.5, 0.01% Triton X-100, 0.005% BSA, 1 mM ascorbate (Cat# A4034, Sigma Aldrich), 1.7 μM α-ketoglutarate (# K2010, Sigma Aldrich) and 20 μM Fe2(NH4)2(SO4)2 (Cat# F1543, Sigma Aldrich). In a 25 μL demethylation reaction system, 20 nM recombinant JARID1A or PLU1 proteins and 4 μM H3K4me3 peptide (1-21 aa), which can be biotinylated or unlabelled, were incubated with compounds for 10 minutes, and then α-ketoglutarate and Fe2(NH4)2(SO4)2 were added to initiate the reaction. All of the reactions were incubated for 45 minutes at room temperature, and then 25 μl of 1 N HCl was added to quench the reactions. After termination, plates were sealed and frozen at −80° C. for analysis.
(§2) All the reactions were read by RapidFire™ HT-MS platform developed in BioCius Inc, and described in detail (Assay and Drug Development Technologies, 2004; 2(4): 373-381). Briefly, plates were thawed and immediately analyzed using RapidFire™ system coupled to a Sciex API4000 triple quadrapole mass spectrometer. The samples were delivered directly from the plate to a clean-up cartridge (BioCius column A) to remove nonvolatile assay components with 0.1% formic acid in a 3-sec wash cycle. The peptide substrate and demethylated product were coeluted to the mass spectrometer with 80% acetonitrile, 0.1% formic acid. Both the substrate and product signals were read at their +5 charge species, and the conversion from substrate to product assessed by [H3K4me2 Read]/[H3K4me2 Read+H3K4me3 Read].

Another experiment has as its target T3, JARID1A (Homo sapiens, UniProt P29375).
T3 construct: FLAG tagged full length recombinant JARID1A and PLU1 proteins were purified from Sf9 insect cells; FLAG; made in house; host or cells: Sf9 insect cells
The experiment in a line: JARID1A demethylase assay on H3K4Me3 peptide (RapidFire HT-MS). Here is the method:
as §1, §2

T3 sequence (P29375 whole entry): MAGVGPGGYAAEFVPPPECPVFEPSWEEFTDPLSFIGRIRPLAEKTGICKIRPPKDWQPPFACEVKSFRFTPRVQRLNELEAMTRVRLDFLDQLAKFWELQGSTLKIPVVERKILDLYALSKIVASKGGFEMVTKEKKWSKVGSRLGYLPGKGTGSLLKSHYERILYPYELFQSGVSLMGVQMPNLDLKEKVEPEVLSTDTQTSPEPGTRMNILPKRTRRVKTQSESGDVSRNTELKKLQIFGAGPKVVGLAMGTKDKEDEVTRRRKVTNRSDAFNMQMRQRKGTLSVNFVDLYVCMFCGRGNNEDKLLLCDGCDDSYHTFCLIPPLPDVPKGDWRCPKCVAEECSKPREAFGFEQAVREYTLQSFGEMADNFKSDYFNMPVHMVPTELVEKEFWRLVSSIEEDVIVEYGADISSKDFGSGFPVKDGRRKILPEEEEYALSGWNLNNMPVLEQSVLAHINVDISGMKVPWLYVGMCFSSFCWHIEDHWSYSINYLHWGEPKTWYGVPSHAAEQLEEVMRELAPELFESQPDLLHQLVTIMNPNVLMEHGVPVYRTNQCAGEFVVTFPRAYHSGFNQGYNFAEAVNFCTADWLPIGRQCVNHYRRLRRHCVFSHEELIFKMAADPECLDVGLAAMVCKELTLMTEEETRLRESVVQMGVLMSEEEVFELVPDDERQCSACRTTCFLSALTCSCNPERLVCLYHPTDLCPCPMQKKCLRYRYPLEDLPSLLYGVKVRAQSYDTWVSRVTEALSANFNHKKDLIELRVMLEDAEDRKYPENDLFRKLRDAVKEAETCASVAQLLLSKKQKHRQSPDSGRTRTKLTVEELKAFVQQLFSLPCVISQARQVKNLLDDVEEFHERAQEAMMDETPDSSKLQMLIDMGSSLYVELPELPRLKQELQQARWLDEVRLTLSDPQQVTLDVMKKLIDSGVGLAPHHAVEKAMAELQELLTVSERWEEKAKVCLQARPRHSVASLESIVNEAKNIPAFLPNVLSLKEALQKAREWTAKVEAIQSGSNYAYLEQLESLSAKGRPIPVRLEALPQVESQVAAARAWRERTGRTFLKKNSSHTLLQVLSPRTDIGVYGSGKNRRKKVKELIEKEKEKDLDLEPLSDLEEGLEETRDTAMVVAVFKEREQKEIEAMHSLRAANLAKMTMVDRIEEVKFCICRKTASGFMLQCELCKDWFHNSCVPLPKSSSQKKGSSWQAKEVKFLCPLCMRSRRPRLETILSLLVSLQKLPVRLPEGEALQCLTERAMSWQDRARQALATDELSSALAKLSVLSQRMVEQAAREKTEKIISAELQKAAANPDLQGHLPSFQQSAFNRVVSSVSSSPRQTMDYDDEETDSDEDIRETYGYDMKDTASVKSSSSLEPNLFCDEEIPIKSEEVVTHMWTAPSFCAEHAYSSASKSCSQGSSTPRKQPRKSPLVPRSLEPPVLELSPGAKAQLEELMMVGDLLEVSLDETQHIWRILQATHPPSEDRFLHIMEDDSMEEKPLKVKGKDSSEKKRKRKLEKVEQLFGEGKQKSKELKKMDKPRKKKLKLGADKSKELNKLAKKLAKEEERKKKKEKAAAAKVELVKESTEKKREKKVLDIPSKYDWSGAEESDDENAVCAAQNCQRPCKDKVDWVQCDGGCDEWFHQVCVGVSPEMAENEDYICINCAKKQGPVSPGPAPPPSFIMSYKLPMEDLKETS
T2 sequence (Q9UGL1 whole entry): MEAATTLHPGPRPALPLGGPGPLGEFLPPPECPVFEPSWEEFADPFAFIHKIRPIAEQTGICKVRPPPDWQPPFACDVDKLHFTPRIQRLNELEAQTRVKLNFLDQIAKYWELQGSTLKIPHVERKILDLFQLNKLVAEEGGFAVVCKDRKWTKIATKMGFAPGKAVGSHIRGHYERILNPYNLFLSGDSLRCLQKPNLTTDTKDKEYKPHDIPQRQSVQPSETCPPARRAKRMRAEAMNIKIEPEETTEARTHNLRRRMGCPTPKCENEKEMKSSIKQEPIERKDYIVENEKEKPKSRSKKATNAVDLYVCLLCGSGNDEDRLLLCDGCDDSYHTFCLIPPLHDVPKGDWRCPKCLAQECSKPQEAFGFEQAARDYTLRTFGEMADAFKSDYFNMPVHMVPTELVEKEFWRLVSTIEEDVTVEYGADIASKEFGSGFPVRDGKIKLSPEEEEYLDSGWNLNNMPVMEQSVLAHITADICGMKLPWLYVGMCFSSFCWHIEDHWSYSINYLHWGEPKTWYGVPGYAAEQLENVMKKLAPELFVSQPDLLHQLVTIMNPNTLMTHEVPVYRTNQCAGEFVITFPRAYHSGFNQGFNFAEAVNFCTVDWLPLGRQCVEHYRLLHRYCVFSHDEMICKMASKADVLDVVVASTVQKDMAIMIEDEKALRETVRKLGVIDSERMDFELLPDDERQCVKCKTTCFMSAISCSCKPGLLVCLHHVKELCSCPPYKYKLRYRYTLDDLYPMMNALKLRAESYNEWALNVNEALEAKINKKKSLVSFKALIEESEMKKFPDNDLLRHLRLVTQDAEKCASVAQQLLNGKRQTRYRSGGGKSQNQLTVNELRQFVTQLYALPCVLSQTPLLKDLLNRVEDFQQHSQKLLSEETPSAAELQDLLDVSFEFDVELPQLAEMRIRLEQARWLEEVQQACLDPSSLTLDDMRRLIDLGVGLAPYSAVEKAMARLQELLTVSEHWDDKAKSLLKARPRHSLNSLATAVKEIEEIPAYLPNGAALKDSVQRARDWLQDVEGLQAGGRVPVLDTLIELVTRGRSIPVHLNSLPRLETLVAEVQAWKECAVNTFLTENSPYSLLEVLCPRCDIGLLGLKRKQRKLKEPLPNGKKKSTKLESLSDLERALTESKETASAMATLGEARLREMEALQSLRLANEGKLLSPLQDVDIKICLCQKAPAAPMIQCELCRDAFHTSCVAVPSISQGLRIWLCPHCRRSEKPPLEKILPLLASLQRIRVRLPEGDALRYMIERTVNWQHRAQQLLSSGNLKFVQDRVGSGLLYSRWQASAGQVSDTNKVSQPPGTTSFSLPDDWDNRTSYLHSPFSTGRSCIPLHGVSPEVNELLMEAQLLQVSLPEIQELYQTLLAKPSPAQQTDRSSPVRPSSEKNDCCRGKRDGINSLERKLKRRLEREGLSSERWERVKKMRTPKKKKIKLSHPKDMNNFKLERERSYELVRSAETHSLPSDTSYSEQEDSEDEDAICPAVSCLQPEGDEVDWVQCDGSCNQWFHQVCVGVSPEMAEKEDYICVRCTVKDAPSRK

`CCc1c(CO)[nH]c2c(C#N)cnn2c1=O` [Compound I-21]: the IC50 on GASC1, at PLU-1 and against JARID1A was at most 1000 nM each time.

As to `CCc1c(COC)[nH]c2c(C#N)cnn2c1=O` [Compound I-23], the IC50 at GASC1 was 1000 to 10000 nM; at PLU-1 it was at most 1000 nM; against JARID1A, at most 1000 nM.

Turning to `CCOC(=O)c1[nH]c2c(C#N)cnn2c(=O)c1CC` [Compound I-25], the IC50 on GASC1, at PLU-1 and against JARID1A was at most 1000 nM each time.

For the compound `CCc1c(C)n(C)c2c(C#N)cnn2c1=O` [Compound I-29], the IC50 on GASC1 is at least 50000 nM; against PLU-1 it was 1000 to 10000 nM; against JARID1A, 1000 to 10000 nM.

Consider `CCc1c(C(=O)NC)[nH]c2c(C#N)cnn2c1=O` [Compound I-49], for which the IC50 at GASC1 was 1000 to 10000 nM; against PLU-1, 1000 to 10000 nM; against JARID1A it was at most 1000 nM.

The values above are taken from patent publication US10035801B2, “Pyrazolo compounds and uses thereof” (CONSTELLATION PHARMACEUTICALS, INC., priority 2013, dated 2018).
